Measured values taken from ChEMBL document CHEMBL1139424, “Design, synthesis, and acetylcholinesterase inhibitory activity of novel coumarin analogues” (Bioorg Med Chem, 2008).

Target: Acetylcholinesterase (Electrophorus electricus, UniProt O42275)
Test: Inhibition of Electrophorus electricus brain AChE by Ellman's method

Acetylcholinesterase, sequence (O42275 whole entry): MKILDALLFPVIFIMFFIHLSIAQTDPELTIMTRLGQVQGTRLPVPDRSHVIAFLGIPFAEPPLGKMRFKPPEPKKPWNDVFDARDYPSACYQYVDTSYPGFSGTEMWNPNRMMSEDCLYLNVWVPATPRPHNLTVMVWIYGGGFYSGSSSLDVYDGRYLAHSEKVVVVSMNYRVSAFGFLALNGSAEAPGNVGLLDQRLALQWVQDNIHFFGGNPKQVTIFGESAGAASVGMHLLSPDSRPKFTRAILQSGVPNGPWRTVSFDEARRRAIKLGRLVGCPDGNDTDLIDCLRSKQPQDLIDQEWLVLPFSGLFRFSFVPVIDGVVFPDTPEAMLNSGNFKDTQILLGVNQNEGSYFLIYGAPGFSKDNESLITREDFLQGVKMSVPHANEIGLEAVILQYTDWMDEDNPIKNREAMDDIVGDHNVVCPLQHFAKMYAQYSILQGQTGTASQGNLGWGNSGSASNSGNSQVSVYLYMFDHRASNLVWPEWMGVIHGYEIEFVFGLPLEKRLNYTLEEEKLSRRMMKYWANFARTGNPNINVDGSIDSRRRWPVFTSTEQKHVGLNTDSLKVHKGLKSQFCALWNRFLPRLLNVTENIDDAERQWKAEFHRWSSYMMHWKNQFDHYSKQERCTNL

Question: Which IC50 does the source give for Cc1ccc2oc(=O)cc(N3CCN(c4cc(Cl)ccc4Cl)CC3)c2c1 here?
Answer: 827 µM

Question: Which IC50 does the source give for Cc1ccc2oc(=O)cc(N3CCN(C(=O)c4ccc(Cl)cc4)CC3)c2c1 here?
Answer: 16 µM

Question: For O=C(c1cc2ccccc2oc1=O)N1CCOCC1, which IC50 is on record?
Answer: 101 µM

Question: How did the IC50 turn out when O=C(c1cc2ccccc2oc1=O)N1CCN(c2cc(Cl)ccc2Cl)CC1 was run?
Answer: 14 µM

Question: Which IC50 does the source give for O=C(c1cc2ccccc2oc1=O)N1CCN(c2ccc(Cl)cc2)CC1 here?
Answer: 98 µM

Question: For O=C(c1ccc([N+](=O)[O-])cc1)N1CCN(C(=O)c2cc3ccccc3oc2=O)CC1, which IC50 is on record?
Answer: 34 µM

Question: COc1ccc(N2CCN(C(=O)c3cc4ccccc4oc3=O)CC2)cc1 was tested. Which IC50 did it give?
Answer: 7.5 µM

Question: How did the IC50 turn out when COc1ccc(N2CCN(c3cc(=O)oc4ccc(C)cc34)CC2)cc1 was run?
Answer: 18 µM

Question: How did the IC50 turn out when Cc1ccc2oc(=O)cc(N3CCOCC3)c2c1 was run?
Answer: 875 µM

Question: How did the IC50 turn out when O=C(c1ccc(Cl)cc1)N1CCN(C(=O)c2cc3ccccc3oc2=O)CC1 was run?
Answer: 21 µM

Question: How did the IC50 turn out when Cc1ccc(C(=O)N2CCN(c3cc(=O)oc4ccc(C)cc34)CC2)cc1 was run?
Answer: 5.3 µM

Question: With Cc1ccc2oc(=O)cc(N3CCN(c4ccc(Cl)cc4)CC3)c2c1 as the compound, how does the IC50 read?
Answer: 808 µM

Question: For COc1ccccc1N1CCN(C(=O)c2cc3ccccc3oc2=O)CC1, which IC50 is on record?
Answer: 11 µM

Question: How did the IC50 turn out when Cc1ccc(N2CCN(c3cc(=O)oc4ccc(C)cc34)CC2)cc1 was run?
Answer: 61 µM

Question: For O=C(c1ccccc1)N1CCN(C(=O)c2cc3ccccc3oc2=O)CC1, which IC50 is on record?
Answer: 15 µM

Question: For O=C(c1ccccc1Cl)N1CCN(C(=O)c2cc3ccccc3oc2=O)CC1, which IC50 is on record?
Answer: 26 µM

Question: Cc1ccc2oc(=O)cc(N3CCN(c4ccccc4C)CC3)c2c1 was tested. Which IC50 did it give?
Answer: 7.9 µM

Question: For Cc1ccc(C(=O)N2CCN(C(=O)c3cc4ccccc4oc3=O)CC2)cc1, which IC50 is on record?
Answer: 18 µM

Question: With Cc1ccc(N2CCN(C(=O)c3cc4ccccc4oc3=O)CC2)cc1 as the compound, how does the IC50 read?
Answer: 7.6 µM

Question: Which IC50 does the source give for O=c1cc(Cl)c2cc(CN3CCN(c4ccccc4)CC3)ccc2o1 here?
Answer: 19 µM

Question: With Cc1ccc2oc(=O)cc(N3CCN(C)CC3)c2c1 as the compound, how does the IC50 read?
Answer: 901 µM

Question: COc1ccccc1N1CCN(c2cc(=O)oc3ccc(C)cc23)CC1 was tested. Which IC50 did it give?
Answer: 249 µM

Question: How did the IC50 turn out when O=C(c1cc2ccccc2oc1=O)N1CCN(c2ccccc2)CC1 was run?
Answer: 9.3 µM

Question: With Cc1ccccc1N1CCN(C(=O)c2cc3ccccc3oc2=O)CC1 as the compound, how does the IC50 read?
Answer: 6.7 µM

Question: Cc1ccc2oc(=O)cc(N3CCN(C(=O)c4ccccc4)CC3)c2c1 was tested. Which IC50 did it give?
Answer: 7.4 µM

Question: Which IC50 does the source give for Cc1ccc2oc(=O)cc(N3CCN(C(=O)c4ccccc4Cl)CC3)c2c1 here?
Answer: 21 µM

Question: How did the IC50 turn out when Cc1ccc2oc(=O)cc(N3CCN(c4ccccc4)CC3)c2c1 was run?
Answer: 4.5 µM
